Assays:
TRKA = target: T1, TRKA (Homo sapiens, UniProt P04629); test: Z'-LYTE kinase activity detection, TRKA; format: biochemical
T1 construct: purchased American Life Technologies PV3144

BaF3-ETV6-NTRK2-F633L = target: T2, BaF3-ETV6-NTRK2-F633L (Homo sapiens, UniProt Q16620, F617L); test: Drug-resistant cell proliferation inhibition (CCK-8); format: cell-based, mouse; conditions: 72 hours, read-out: drug-resistant cell viability IC50
T2 construct: constructed pCDNA3.1(+) plasmid vector carrying genes such as; fused on or other part: P41212 (Transcription factor ETV6)
T2 sequence (Q16620 538-822 F617L limits assumed): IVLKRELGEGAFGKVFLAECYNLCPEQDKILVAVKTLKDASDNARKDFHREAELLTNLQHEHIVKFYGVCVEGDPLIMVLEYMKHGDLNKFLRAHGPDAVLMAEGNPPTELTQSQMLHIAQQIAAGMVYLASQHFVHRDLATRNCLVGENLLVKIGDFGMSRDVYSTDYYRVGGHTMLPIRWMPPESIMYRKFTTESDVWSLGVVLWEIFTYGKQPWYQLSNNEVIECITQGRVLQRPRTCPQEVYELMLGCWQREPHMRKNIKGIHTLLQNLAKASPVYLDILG
From the text: (§1) BaF3 cells (mouse pre-B cells) used in this experiment were purchased from Japan Cell Bank, all of the monoclonal stable strains, BaF3-CD74-NTRK1-G667C, BaF3-CD74-NTRK1-F589L, BaF3-CD74-NTRK1-G595R, BaF3-CD74-NTRK1-G667A, BaF3-CD74-NTRK1-V573M, BaF3-ETV6-NTRK2-G639R, BaF3-ETV6-NTRK2-G709C, BaF3-ETV6-NTRK2-V617M, BaF3-ETV6-NTRK2-F633L, BaF3-ETV6-NTRK3-G696C, BaF3-ETV6-NTRK3-G696A, BaF3-ETV6-NTRK3-G623R, BaF3-ETV6-NTRK3-G623E, BaF3-ETV6-NTRK3-F617L and BaF3-ETV6-NTRK3-V601M were constructed by our laboratory, and were identified by experiments such as positive control, protein expression and gene sequencing.
(§2) The brief steps for stable strains construction were as follows: constructed pCDNA3.1(+) plasmid vector carrying genes such as BaF3-CD74-NTRK1-G667C, BaF3-CD74-NTRK1-F589L, BaF3-CD74-NTRK1-G595R, BaF3-CD74-NTRK1-G667A, BaF3-CD74-NTRK1-V573M, BaF3-ETV6-NTRK2-G639R, BaF3-ETV6-NTRK2-G709C, BaF3-ETV6-NTRK2-V617M, BaF3-ETV6-NTRK2-F633L, BaF3-ETV6-NTRK3-G696C, BaF3-ETV6-NTRK3-G696A, BaF3-ETV6-NTRK3-G623R, BaF3-ETV6-NTRK3-G623E, BaF3-ETV6-NTRK3-F617L and BaF3-ETV6-NTRK3-V601M; the plasmid was electroporated into Ba/F3 cells using Amaxa® Cell Line Nucleofector® Kit V; 48 hours after of electroporation, geneticin (G418) with a final concentration of 1000 μg/mL was added to screen for two weeks, and the interleukin 3 (IL3) was removed to continue screening to obtain polyclonal stable strains; and then single clones were selected by limiting dilution method; the stable strains were then identified by the positive drugs, Western Blot (WB), and gene sequencing; the correct monoclonal through identification can be used to study the cell proliferation inhibitory activity of the inhibitors.
(§3) Cell proliferation inhibitory activity study: The cells in logarithmic growth phase were seeded into 96-well plates at 8000-12000 cells/well, and the inhibitors at different concentrations of (0-10 μM) were added the next day, and the culture was continued for 72 hours; then 10 μL of Cell Counting Kit-8 Cell Counting Reagent (CCK-8 Reagent) was added to each well, and continued to incubate for 1-3 hours; then its absorbance at 450 nm and 650 nm were measured with a super microplate reader. The median inhibitory concentration (IC50) was calculated using medical graphing software (GraphPad Prism 8.0.0).

BaF3-ETV6-NTRK3-G696C = target: T3, BaF3-ETV6-NTRK3-G696C (Homo sapiens, UniProt Q16288, G696C); test: as above; format: cell-based, mouse; conditions: 72 hours, read-out: drug-resistant cell viability IC50
T3 construct: constructed pCDNA3.1(+) plasmid vector carrying genes such as; fused on or other part: P41212 (Transcription factor ETV6)
T3 sequence (Q16288 whole entry G696C, the tested form may be a part): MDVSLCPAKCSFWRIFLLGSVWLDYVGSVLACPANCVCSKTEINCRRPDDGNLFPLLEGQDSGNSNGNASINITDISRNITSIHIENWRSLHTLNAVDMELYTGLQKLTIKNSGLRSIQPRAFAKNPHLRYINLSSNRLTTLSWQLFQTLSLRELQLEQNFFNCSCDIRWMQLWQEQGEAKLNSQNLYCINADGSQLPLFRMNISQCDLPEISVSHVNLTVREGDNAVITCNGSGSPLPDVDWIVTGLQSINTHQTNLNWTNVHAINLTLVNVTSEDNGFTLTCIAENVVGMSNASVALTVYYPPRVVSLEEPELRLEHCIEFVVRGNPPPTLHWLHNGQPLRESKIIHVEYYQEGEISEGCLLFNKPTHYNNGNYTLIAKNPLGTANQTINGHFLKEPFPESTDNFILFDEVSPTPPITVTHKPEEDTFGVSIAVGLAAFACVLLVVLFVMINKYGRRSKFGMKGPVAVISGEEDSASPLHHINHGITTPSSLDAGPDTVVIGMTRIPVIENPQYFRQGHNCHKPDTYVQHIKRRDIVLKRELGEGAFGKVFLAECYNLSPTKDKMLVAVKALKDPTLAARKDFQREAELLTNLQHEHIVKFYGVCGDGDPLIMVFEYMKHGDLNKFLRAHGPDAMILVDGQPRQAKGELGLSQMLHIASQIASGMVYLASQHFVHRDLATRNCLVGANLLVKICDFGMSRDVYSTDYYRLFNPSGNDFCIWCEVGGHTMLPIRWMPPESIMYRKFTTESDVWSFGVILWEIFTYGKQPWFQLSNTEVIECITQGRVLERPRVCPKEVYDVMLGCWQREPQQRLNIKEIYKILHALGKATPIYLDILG
From the text: as §1, §2, §3

BaF3-ETV6-NTRK2-V617M = target: T4, BaF3-ETV6-NTRK2-V617M (Homo sapiens, UniProt Q16620, V601M); test: as above; format: cell-based, mouse; conditions: 72 hours, read-out: drug-resistant cell viability IC50
T4 construct: constructed pCDNA3.1(+) plasmid vector carrying genes such as; fused on or other part: P41212 (Transcription factor ETV6)
T4 sequence (Q16620 538-822 V601M limits assumed): as the sequence (Q16620 538-822 F617L limits assumed) above, with V64M, L80F counted along it
From the text: as §1, §2, §3

BaF3-ETV6-NTRK3-F617L = target: T5, BaF3-ETV6-NTRK3-F617L (Homo sapiens, UniProt Q16288, F617L); test: as above; format: cell-based, mouse; conditions: 72 hours, read-out: drug-resistant cell viability IC50
T5 construct: constructed pCDNA3.1(+) plasmid vector carrying genes such as; fused on or other part: P41212 (Transcription factor ETV6)
T5 sequence (Q16288 whole entry F617L, the tested form may be a part): as the sequence (Q16288 whole entry G696C, the tested form may be a part) above, with F617L, C696G counted along it
From the text: as §1, §2, §3

BaF3-CD74-NTRK1-F589L = target: T6, BaF3-CD74-NTRK1-F589L (Homo sapiens, UniProt P04629, F589L); test: as above; format: cell-based, mouse; conditions: 72 hours, read-out: drug-resistant cell viability IC50
T6 construct: fused on or other part: P04233 (HLA class II histocompatibility antigen gamma chain)
T6 sequence (P04629 510-796 F589L limits assumed): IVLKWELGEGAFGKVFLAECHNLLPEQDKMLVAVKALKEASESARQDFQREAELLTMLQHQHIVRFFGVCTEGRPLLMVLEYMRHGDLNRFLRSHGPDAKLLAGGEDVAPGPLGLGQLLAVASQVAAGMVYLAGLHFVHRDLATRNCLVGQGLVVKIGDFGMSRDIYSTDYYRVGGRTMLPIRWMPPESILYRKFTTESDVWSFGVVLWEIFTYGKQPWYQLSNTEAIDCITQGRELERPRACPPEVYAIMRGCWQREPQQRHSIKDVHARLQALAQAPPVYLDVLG
From the text: as §1, §2, §3

BaF3-CD74-NTRK1-G667A = target: T7, BaF3-CD74-NTRK1-G667A (Homo sapiens, UniProt P04629, G667A); test: as above; format: cell-based, mouse; conditions: 72 hours, read-out: drug-resistant cell viability IC50
T7 construct: constructed pCDNA3.1(+) plasmid vector carrying genes such as; fused on or other part: P04233 (HLA class II histocompatibility antigen gamma chain)
T7 sequence (P04629 510-796 G667A limits assumed): as the sequence (P04629 510-796 F589L limits assumed) above, with L80F, G158A counted along it
From the text: as §1, §2, §3

BaF3-ETV6-NTRK3-G696A = target: T8, BaF3-ETV6-NTRK3-G696A (Homo sapiens, UniProt Q16288, G696A); test: as above; format: cell-based, mouse; conditions: 72 hours, read-out: drug-resistant cell viability IC50
T8 construct: constructed pCDNA3.1(+) plasmid vector carrying genes such as; fused on or other part: P41212 (Transcription factor ETV6)
T8 sequence (Q16288 whole entry G696A, the tested form may be a part): as the sequence (Q16288 whole entry G696C, the tested form may be a part) above, with C696A counted along it
From the text: as §1, §2, §3

BaF3-ETV6-NTRK3-V601M = target: T9, BaF3-ETV6-NTRK3-V601M (Homo sapiens, UniProt Q16288, V601M); test: as above; format: cell-based, mouse; conditions: 72 hours, read-out: drug-resistant cell viability IC50
T9 construct: constructed pCDNA3.1(+) plasmid vector carrying genes such as; fused on or other part: P41212 (Transcription factor ETV6)
T9 sequence (Q16288 whole entry V601M, the tested form may be a part): as the sequence (Q16288 whole entry G696C, the tested form may be a part) above, with V601M, C696G counted along it
From the text: as §1, §2, §3

BaF3-CD74-NTRK1-G595R = target: T10, BaF3-CD74-NTRK1-G595R (Homo sapiens, UniProt P04629, G595R); test: as above; format: cell-based, mouse; conditions: 72 hours, read-out: drug-resistant cell viability IC50
T10 construct: constructed pCDNA3.1(+) plasmid vector carrying genes such as; fused on or other part: P04233 (HLA class II histocompatibility antigen gamma chain)
T10 sequence (P04629 510-796 G595R limits assumed): as the sequence (P04629 510-796 F589L limits assumed) above, with L80F, G86R counted along it
From the text: as §1, §2, §3

BaF3-ETV6-NTRK2-G709C = target: T11, BaF3-ETV6-NTRK2-G709C (Homo sapiens, UniProt Q16620, G693C); test: as above; format: cell-based, mouse; conditions: 72 hours, read-out: drug-resistant cell viability IC50
T11 construct: constructed pCDNA3.1(+) plasmid vector carrying genes such as; fused on or other part: P41212 (Transcription factor ETV6)
T11 sequence (Q16620 538-822 G693C limits assumed): as the sequence (Q16620 538-822 F617L limits assumed) above, with L80F, G156C counted along it
From the text: as §1, §2, §3

BaF3-ETV6-NTRK3-G623E = target: T12, BaF3-ETV6-NTRK3-G623E (Homo sapiens, UniProt Q16288, G623E); test: as above; format: cell-based, mouse; conditions: 72 hours, read-out: drug-resistant cell viability IC50
T12 construct: constructed pCDNA3.1(+) plasmid vector carrying genes such as; fused on or other part: P41212 (Transcription factor ETV6)
T12 sequence (Q16288 whole entry G623E, the tested form may be a part): as the sequence (Q16288 whole entry G696C, the tested form may be a part) above, with G623E, C696G counted along it
From the text: as §1, §2, §3

BaF3-CD74-NTRK1-V573M = target: T13, BaF3-CD74-NTRK1-V573M (Homo sapiens, UniProt P04629, V573M); test: as above; format: cell-based, mouse; conditions: 72 hours, read-out: drug-resistant cell viability IC50
T13 construct: constructed pCDNA3.1(+) plasmid vector carrying genes such as BaF3-CD74-NTRK1-G667C; fused on or other part: P04233 (HLA class II histocompatibility antigen gamma chain)
T13 sequence (P04629 510-796 V573M limits assumed): as the sequence (P04629 510-796 F589L limits assumed) above, with V64M, L80F counted along it
From the text: as §1, §2, §3

BaF3-ETV6-NTRK2-G639R = target: T14, BaF3-ETV6-NTRK2-G639R (Homo sapiens, UniProt Q16620, G623R); test: as above; format: cell-based, mouse; conditions: 72 hours, read-out: drug-resistant cell viability IC50
T14 construct: constructed pCDNA3.1(+) plasmid vector carrying genes such as; fused on or other part: P41212 (Transcription factor ETV6)
T14 sequence (Q16620 538-822 G623R limits assumed): as the sequence (Q16620 538-822 F617L limits assumed) above, with L80F, G86R counted along it
From the text: as §1, §2, §3

BaF3-CD74-NTRK1-G667C = target: T15, BaF3-CD74-NTRK1-G667C (Homo sapiens, UniProt P04629, G667C); test: as above; format: cell-based, mouse; conditions: 72 hours, read-out: drug-resistant cell viability IC50
T15 construct: fused on or other part: P04233 (HLA class II histocompatibility antigen gamma chain)
T15 sequence (P04629 510-796 G667C limits assumed): as the sequence (P04629 510-796 F589L limits assumed) above, with L80F, G158C counted along it
From the text: as §1, §2, §3

BaF3-ETV6-NTRK3-G623R = target: T16, BaF3-ETV6-NTRK3-G623R (Homo sapiens, UniProt Q16288, G623R); test: as above; format: cell-based, mouse; conditions: 72 hours, read-out: drug-resistant cell viability IC50
T16 construct: constructed pCDNA3.1(+) plasmid vector carrying genes such as; fused on or other part: P41212 (Transcription factor ETV6)
T16 sequence (Q16288 whole entry G623R, the tested form may be a part): as the sequence (Q16288 whole entry G696C, the tested form may be a part) above, with G623R, C696G counted along it
From the text: as §1, §2, §3

TRKB = target: T17, TRKB (Homo sapiens, UniProt Q16620); test: Z'-LYTE kinase activity detection, TRKB; format: biochemical
T17 construct: purchased American Life Technologies PV3616
T17 sequence (Q16620 32-822): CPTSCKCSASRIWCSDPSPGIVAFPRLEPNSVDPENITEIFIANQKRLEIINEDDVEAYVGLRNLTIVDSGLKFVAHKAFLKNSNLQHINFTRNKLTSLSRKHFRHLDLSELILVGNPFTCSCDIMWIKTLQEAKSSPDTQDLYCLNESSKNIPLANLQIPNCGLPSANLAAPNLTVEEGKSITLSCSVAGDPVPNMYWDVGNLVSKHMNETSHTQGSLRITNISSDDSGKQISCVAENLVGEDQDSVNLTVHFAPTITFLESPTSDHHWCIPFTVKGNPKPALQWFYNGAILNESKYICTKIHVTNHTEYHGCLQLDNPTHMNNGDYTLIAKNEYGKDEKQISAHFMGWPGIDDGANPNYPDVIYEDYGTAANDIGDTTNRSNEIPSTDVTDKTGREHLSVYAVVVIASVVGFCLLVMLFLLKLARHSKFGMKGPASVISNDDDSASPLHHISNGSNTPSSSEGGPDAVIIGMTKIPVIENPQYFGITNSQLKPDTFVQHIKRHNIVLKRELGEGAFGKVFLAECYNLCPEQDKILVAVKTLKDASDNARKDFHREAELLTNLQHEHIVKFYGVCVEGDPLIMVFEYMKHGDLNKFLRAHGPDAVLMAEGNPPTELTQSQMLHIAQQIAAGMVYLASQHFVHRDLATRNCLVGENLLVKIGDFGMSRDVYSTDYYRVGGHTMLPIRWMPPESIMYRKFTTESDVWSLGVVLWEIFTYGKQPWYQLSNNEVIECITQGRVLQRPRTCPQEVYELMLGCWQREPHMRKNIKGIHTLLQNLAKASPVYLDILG

T1 sequence (P04629 33-796): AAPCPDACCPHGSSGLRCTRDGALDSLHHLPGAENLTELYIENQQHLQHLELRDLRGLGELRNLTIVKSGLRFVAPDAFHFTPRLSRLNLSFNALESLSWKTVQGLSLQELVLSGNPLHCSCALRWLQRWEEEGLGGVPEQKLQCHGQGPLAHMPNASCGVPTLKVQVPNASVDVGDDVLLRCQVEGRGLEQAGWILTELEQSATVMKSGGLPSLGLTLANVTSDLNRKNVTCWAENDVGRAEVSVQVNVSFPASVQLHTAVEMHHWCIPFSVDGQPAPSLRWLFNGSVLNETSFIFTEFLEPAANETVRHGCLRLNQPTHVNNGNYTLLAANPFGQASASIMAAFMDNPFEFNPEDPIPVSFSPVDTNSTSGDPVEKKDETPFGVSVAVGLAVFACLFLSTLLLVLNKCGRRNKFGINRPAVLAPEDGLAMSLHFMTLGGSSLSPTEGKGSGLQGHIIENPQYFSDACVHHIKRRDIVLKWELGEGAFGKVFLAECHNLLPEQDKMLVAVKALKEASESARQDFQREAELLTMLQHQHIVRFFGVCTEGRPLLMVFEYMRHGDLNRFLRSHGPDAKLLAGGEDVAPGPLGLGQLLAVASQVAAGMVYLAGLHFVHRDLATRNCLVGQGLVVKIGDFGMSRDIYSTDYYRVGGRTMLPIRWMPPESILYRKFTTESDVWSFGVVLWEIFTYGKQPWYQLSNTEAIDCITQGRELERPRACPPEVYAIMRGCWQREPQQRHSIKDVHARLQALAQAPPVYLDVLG

Row | Structure (SMILES) | IC50 (TRKA) [nM] | IC50 (BaF3-ETV6-NTRK2-F633L) [nM] | IC50 (BaF3-ETV6-NTRK3-G696C) [nM] | IC50 (BaF3-ETV6-NTRK2-V617M) [nM] | IC50 (BaF3-ETV6-NTRK3-F617L) [nM] | IC50 (BaF3-CD74-NTRK1-F589L) [nM] | IC50 (BaF3-CD74-NTRK1-G667A) [nM] | IC50 (BaF3-ETV6-NTRK3-G696A) [nM] | IC50 (BaF3-ETV6-NTRK3-V601M) [nM] | IC50 (BaF3-CD74-NTRK1-G595R) [nM] | IC50 (BaF3-ETV6-NTRK2-G709C) [nM] | IC50 (BaF3-ETV6-NTRK3-G623E) [nM] | IC50 (BaF3-CD74-NTRK1-V573M) [nM] | IC50 (BaF3-ETV6-NTRK2-G639R) [nM] | IC50 (BaF3-CD74-NTRK1-G667C) [nM] | IC50 (BaF3-ETV6-NTRK3-G623R) [nM] | IC50 (TRKB) [nM]
1 | Cc1c(C#Cc2cnc3ccc(N4CCOCC4)nn23)cccc1C(=O)Nc1cc(CN2CCN(C)CC2)cc(C(F)(F)F)c1 [XS3-68, 2-METHYL-N-(3-((4-METHYLPIPERAZIN-1-YL)METHYL)-5-(TRIFLUOROMETHYL)PHENYL)-3-((6-METHYLENE) LINOIMIDAZO[1,2-B]PYRIDAZIN-3-YL)ETHYNYL)BENZAMIDE] | < 10 | 100 to 1000 | < 10 | < 10 | 10 to 100 | 100 to 1000 | < 10 | < 10 | < 10 | 100 to 1000 | < 10 | < 10 | 10 to 100 | 10 to 100 | < 10 | 10 to 100 | < 10
2 | Cc1c(C#Cc2cnc3ccc(N4CCC(O)CC4)nn23)cccc1C(=O)Nc1cc(Cl)cc(C(F)(F)F)c1 [XS3-55, N-(3-CHLORO-5-(TRIFLUOROMETHYL)PHENYL)-3-((6-(4-HYDROXYPIPERIDIN-1-YL)IMIDAZO[1,2-B]PYRIDAZINE-3-YL)ETHYNYL)-2-METHYLBENZAMIDE] | < 10 |  | < 10 |  | 10 to 100 | 100 to 1000 | < 10 | < 10 | < 10 | > 1000 |  | < 10 | 10 to 100 |  | < 10 | 100 to 1000 | 
3 | Cc1c(C#Cc2cnc3ccc(N4CCC(O)CC4)nn23)cccc1C(=O)Nc1cc(CN2CCN(C)CC2)cc(C(F)(F)F)c1 [XS3-81, 3-((6-(4-HYDROXYPIPERIDIN-1-YL)IMIDAZO[1,2-B]PYRIDAZIN-3-YL)ETHYNYL)-2-METHYL-N-(3-(((4-METHYLPIPERAZIN-1-YL)METHYL)-5-(TRIFLUOROMETHYL)PHENYL)BENZAMIDE] | < 10 | 100 to 1000 | < 10 | < 10 | 10 to 100 | 100 to 1000 | < 10 | < 10 | < 10 | 100 to 1000 | 10 to 100 | < 10 | < 10 | 10 to 100 | < 10 | 10 to 100 | < 10
4 | Cc1cn(-c2cc(NC(=O)c3cccc(C#Cc4cnc5ccc(N6CCC(O)CC6)nn45)c3C)cc(C(F)(F)F)c2)cn1 [XS3-87, 3-((6-(4-HYDROXYPIPERIDIN-1-YL)IMIDAZO[1,2-B]PYRIDAZIN-3-YL)ETHYNYL)-2-METHYL-N-(3-(4-METHYL-1H-IMIDAZOL-1-YL)-5-(TRIFLUOROMETHYL)PHENYL)BENZAMIDE] | < 10 | 10 to 100 | < 10 | < 10 | < 10 | 10 to 100 | < 10 | < 10 | < 10 | 100 to 1000 | < 10 | < 10 | < 10 | 10 to 100 | < 10 | 10 to 100 | < 10

From patent US11834454B2, “Alkynylphenylbenzamide compounds and applications thereof” (SHENZHEN NEWDEL BIOTECH CO., LTD., priority 2021, dated 2023)
